Experimental data: paper PMC6839502 (Journal of Alzheimer's Disease, 2019)
Read-outs that look alike come from different tables or passages of the source.

Assays:
[1] = cited from earlier work
[2] = tested on: fur, hair and skin pigmentation; conditions: cited from earlier work; for Fur and skin pigmentation: mice, rats, or dogs following chronic dosing regimens
BACE1 over CatD = conditions: cited from earlier work
CSF Aβ = conditions: cited from earlier work; for Reduction in CSF Aβ: healthy older subjects; for Reduction of CSF Aβ40: healthy adults and older subjects combined; for Average reduction of steady state CSF Aβ40: mild-to-moderate AD patients
BACE1 over BACE2 = conditions: cited from earlier work
[3] = Safety and tolerability in study B8271007; type: in vivo, human; conditions: single oral dose of 2 mg midazolam alone (period 1)

CC#Cc1cncc(-c2ccc3c(c2)[C@@]2(N=C(C)C(N)=N2)[C@]2(CC[C@H](OC)CC2)C3)c1 [AZD3293]
Liver toxicity in clinical studies [1]: liver toxicity was not reported | Hair depigmentation ([2]; animal studies): hair depigmentation | Fur and skin pigmentation [2]: fur and skin pigment loss | Selectivity for BACE1 over CatD (BACE1 over CatD): good selectivity | Reduction in CSF Aβ (CSF Aβ; 15 mg QD): approximately 51% | Reduction in CSF Aβ (CSF Aβ; 50 mg QD): ~76%

C[C@@]1(c2nc(NC(=O)c3ncc(C(F)(F)F)cc3Cl)ccc2F)CO[C@@](C)(C(F)(F)F)C(N)=N1 [CNP520]
Liver toxicity in clinical studies [1]: liver toxicity was not reported | Hair depigmentation ([2]; long-term treatment in mice or dogs): did not result in any hair depigmentation | Selectivity for BACE1 over BACE2 in vitro (BACE1 over BACE2): 3 fold

C[C@@]1(c2cc(NC(=O)c3ccc(C#N)cn3)ccc2F)C=CSC(N)=N1 [JNJ-54861911]
Liver toxicity in clinical studies ([1]; Phase II and Phase IIb/III studies): concerns over abnormal liver enzymes leading to the termination | Reduction of CSF Aβ40 (CSF Aβ; 5 mg QD): approximately 50% | Reduction of CSF Aβ40 (CSF Aβ; 25 mg QD): ~80%

NC1=N[C@@]2(c3cc(NC(=O)c4ccc(F)cn4)ccc3F)COC[C@H]2CS1 [LY2886721]
Liver toxicity in clinical studies ([1]; Phase II study): concerns over abnormal liver enzymes leading to the termination

CN1C(=N)N[C@](C)(c2cc(NC(=O)c3ccc(F)cn3)ccc2F)CS1(=O)=O [MK-8931]
Liver toxicity in clinical studies [1]: liver toxicity was not reported | Hair depigmentation ([2]; animal studies): hair depigmentation | Average reduction of steady state CSF Aβ40 (CSF Aβ; 12 mg QD): 57% | Average reduction of steady state CSF Aβ40 (CSF Aβ; 40 mg QD): 79%

Cc1cc(C#N)cnc1C(=O)Nc1ccc(F)c([C@]2(C)CO[C@@](C)(C(F)(F)F)C(N)=N2)c1 [NB-360]
Fur and skin pigmentation [2]: fur and skin pigment loss

Cc1ncc2n1-c1ccc(Cl)cc1C(c1ccccc1F)=NC2 [midazolam, reference compound]
TEAEs deemed treatment related [3]: none | TEAEs reported [3]: three
